Assay results: ChEMBL document CHEMBL4152293, “Synthesis and biological evaluation of podophyllotoxin derivatives as selective antitumor agents” (Eur J Med Chem, 2018)
Calls of active or inactive are those of the source. The calls are words filed in the database; no cut-off is given here.

Tests used:
[1] = tested on: A549; test: Cytotoxicity against human A549 cells assessed as growth inhibition after 72 hrs by MTT assay; format: functional, cell-based; settings: A549, 72 h
[2] = tested on: HepG2; test: Cytotoxicity against human HepG2 cells assessed as growth inhibition after 72 hrs by MTT assay; format: functional, cell-based; settings: HepG2, 72 h
[3] = Selectivity index, ratio of IC50 for human L02 cells to IC50 for human A549 cells; format: toxicity; settings: L02 cells versus A549 cells, read-out: Ratio IC50
[4] = tested on: A549; test: Induction of morphological changes in nucleus of human A549 cells at 10 to 30 nM after 72 hrs by DAPI staining-based fluorescence microscopic method; format: functional, cell-based
[5] = tested on: A549; test: Induction of apoptosis in human A549 cells assessed as early apoptotic cells at 10 nM after 72 hrs by annexin V-FITC/propidium iodide staining-based flow cytometric method (reference value: 3%); format: functional
[6] = tested on: A549; test: Induction of apoptosis in human A549 cells assessed as necrotic cells at 10 nM after 72 hrs by annexin V-FITC/propidium iodide staining-based flow cytometric method (reference value: 0.1%); format: functional
[7] = tested on: A549; test: Induction of apoptosis in human A549 cells assessed as viable cells at 10 nM after 72 hrs by annexin V-FITC/propidium iodide staining-based flow cytometric method (reference value: 92.8%); format: functional; settings: A549, 72 h, read-out: Activity
[8] = tested on: A549; test: Induction of apoptosis in human A549 cells assessed as late apoptotic cells at 100 nM after 72 hrs by annexin V-FITC/propidium iodide staining-based flow cytometric method (reference value: 4.1%); format: functional
[9] = tested on: A549; test: Induction of apoptosis in human A549 cells assessed as necrotic cells at 100 nM after 72 hrs by annexin V-FITC/propidium iodide staining-based flow cytometric method (reference value: 0.1%); format: functional
[10] = tested on: A549; test: Induction of apoptosis in human A549 cells assessed as viable cells at 100 nM after 72 hrs by annexin V-FITC/propidium iodide staining-based flow cytometric method (reference value: 92.8%); format: functional; settings: A549, 72 h, read-out: Activity
[11] = tested on: A549; test: Induction of apoptosis in human A549 cells assessed as early apoptotic cells at 200 nM after 72 hrs by annexin V-FITC/propidium iodide staining-based flow cytometric method (reference value: 3%); format: functional
[12] = tested on: A549; test: Induction of apoptosis in human A549 cells assessed as late apoptotic cells at 200 nM after 72 hrs by annexin V-FITC/propidium iodide staining-based flow cytometric method (reference value: 4.1%); format: functional
[13] = tested on: A549; test: Induction of apoptosis in human A549 cells assessed as necrotic cells at 200 nM after 72 hrs by annexin V-FITC/propidium iodide staining-based flow cytometric method (reference value: 0.1%); format: functional
[14] = tested on: A549; test: Induction of apoptosis in human A549 cells assessed as viable cells at 200 nM after 72 hrs by annexin V-FITC/propidium iodide staining-based flow cytometric method (reference value: 92.8%); format: functional; settings: A549, 72 h, read-out: Activity
[15] = tested on: L02; test: Induction of apoptosis in human L02 cells assessed as late apoptotic cells at 10 nM after 72 hrs by annexin V-FITC/propidium iodide staining-based flow cytometric method (reference value: 1.6%); format: cell-based; settings: l02, 72 h, 0.01 µM
[16] = tested on: L02; test: Induction of apoptosis in human L02 cells assessed as necrotic cells at 10 nM after 72 hrs by annexin V-FITC/propidium iodide staining-based flow cytometric method (reference value: 0%); format: cell-based; settings: l02, 72 h, 0.01 µM
[17] = tested on: L02; test: Induction of apoptosis in human L02 cells assessed as early apoptotic cells at 100 nM after 72 hrs by annexin V-FITC/propidium iodide staining-based flow cytometric method (reference value: 2%); format: cell-based; settings: l02, 72 h, 0.1 µM
[18] = tested on: L02; test: Induction of apoptosis in human L02 cells assessed as late apoptotic cells at 100 nM after 72 hrs by annexin V-FITC/propidium iodide staining-based flow cytometric method (reference value: 1.6%); format: cell-based; settings: l02, 72 h, 0.1 µM
[19] = Induction of apoptosis in human L02 cells assessed as viable cells at 100 nM after 72 hrs by annexin V-FITC/propidium iodide staining-based flow cytometric method (reference value: 96.3%); format: cell-based; settings: read-out: Activity
[20] = tested on: L02; test: Induction of apoptosis in human L02 cells assessed as early apoptotic cells at 200 nM after 72 hrs by annexin V-FITC/propidium iodide staining-based flow cytometric method (reference value: 2%); format: cell-based; settings: l02, 72 h, 0.2 µM
[21] = tested on: L02; test: Induction of apoptosis in human L02 cells assessed as necrotic cells at 200 nM after 72 hrs by annexin V-FITC/propidium iodide staining-based flow cytometric method (reference value: 0%); format: cell-based; settings: l02, 72 h, 0.2 µM
[22] = Induction of apoptosis in human L02 cells assessed as viable cells at 200 nM after 72 hrs by annexin V-FITC/propidium iodide staining-based flow cytometric method (reference value: 96.3%); format: cell-based; settings: read-out: Activity
[23] = tested on: A549; test: Cell cycle arrest in human A549 cells assessed as accumulation at G2/M phase at 5 nM after 72 hrs by propidium iodide staining-based flow cytometric method (reference value: 14.23%); format: functional
[24] = tested on: A549; test: Cell cycle arrest in human A549 cells assessed as accumulation at S phase at 5 nM after 72 hrs by propidium iodide staining-based flow cytometric method (reference value: 24.48%); format: functional
[25] = tested on: A549; test: Cell cycle arrest in human A549 cells assessed as accumulation at S phase at 10 nM after 72 hrs by propidium iodide staining-based flow cytometric method (reference value: 24.48%); format: functional
[26] = tested on: A549; test: Cell cycle arrest in human A549 cells assessed as accumulation at S phase at 100 nM after 72 hrs by propidium iodide staining-based flow cytometric method (reference value: 24.48%); format: functional
[27] = tested on: A549; test: Cell cycle arrest in human A549 cells assessed as accumulation at G2/M phase at 100 nM after 72 hrs by propidium iodide staining-based flow cytometric method (reference value: 14.23%); format: functional
[28] = tested on: L02; test: Cell cycle arrest in human L02 cells assessed as accumulation at G0/G1 phase at 5 nM after 72 hrs by propidium iodide staining-based flow cytometric method (reference value: 57.34%); format: ADME; settings: l02, 72 h, 0.005 µM
[29] = tested on: L02; test: Cell cycle arrest in human L02 cells assessed as accumulation at S phase at 5 nM after 72 hrs by propidium iodide staining-based flow cytometric method (reference value: 25.78%); format: ADME; settings: l02, 72 h, 0.005 µM
[30] = tested on: L02; test: Cell cycle arrest in human L02 cells assessed as accumulation at G0/G1 phase at 10 nM after 72 hrs by propidium iodide staining-based flow cytometric method (reference value: 57.34%); format: ADME; settings: l02, 72 h, 0.01 µM
[31] = tested on: L02; test: Cell cycle arrest in human L02 cells assessed as accumulation at S phase at 10 nM after 72 hrs by propidium iodide staining-based flow cytometric method (reference value: 25.78%); format: ADME; settings: l02, 72 h, 0.01 µM
[32] = tested on: L02; test: Cell cycle arrest in human L02 cells assessed as accumulation at G2/M phase at 10 nM after 72 hrs by propidium iodide staining-based flow cytometric method (reference value: 16.88%); format: ADME; settings: l02, 72 h, 0.01 µM
[33] = tested on: L02; test: Cell cycle arrest in human L02 cells assessed as accumulation at G0/G1 phase at 100 nM after 72 hrs by propidium iodide staining-based flow cytometric method (reference value: 57.34%); format: ADME; settings: l02, 72 h, 0.1 µM
[34] = tested on: L02; test: Cell cycle arrest in human L02 cells assessed as accumulation at S phase at 100 nM after 72 hrs by propidium iodide staining-based flow cytometric method (reference value: 25.78%); format: ADME; settings: l02, 72 h, 0.1 µM
[35] = tested on: A549; test: Induction of apoptosis in human A549 cells after 72 hrs by annexin V-FITC/propidium iodide staining-based flow cytometric method; format: functional, cell-based

Work on `COc1cc([C@@H]2c3cc4c(cc3[C@H](OC(=O)CN(C)C(=O)OC(C)(C)C)[C@H]3COC(=O)[C@H]23)OCO4)cc(OC)c1OC` yielded an IC50 [1] of 9.5 nM, an IC50 [2] of 96.4 nM and a selectivity ratio [3] of 16.9. The Activity [4] was “Active”, the Activity [5] was 4.1% and the Activity [6] was 0%. It also gave a viability at 0.01 µM [7] of 87.8%, an Activity [8] of 3% and an Activity [9] of 0%. It also gave a viability at 0.1 µM [10] of 12.4%, an Activity [11] of 92.8% and an Activity [12] of 2.1%. It also gave an Activity [13] of 0%, a viability at 0.2 µM [14] of 5.1% and an Activity [15] of 1.6%. It also gave an Activity [16] of 0%, an Activity [17] of 10.6% and an Activity [18] of 2.1%. It also gave a viability at 72 h, 0.1 µM [19] of 87.3%, an Activity [20] of 65% and an Activity [21] of 0.1%. For the same molecule, the viability at 72 h, 0.2 µM [22] was 31.8%, the Activity [23] was 13.74% and the Activity [24] was 26.07%. It also gave an Activity [25] of 27.26%, an Activity [26] of 47.13% and an Activity [27] of 17.14%. It also gave an Activity [28] of 62.19%, an Activity [29] of 24.04% and an Activity [30] of 62.3%. For the same molecule, the Activity [31] was 24.59%, the Activity [32] was 13.11% and the Activity [33] was 67.29%. The Activity [34] was 18.93% and the Activity [35] was “Dose-dependent effect”.
